Where a name gives a salt, the structure may show the parent alone.
Experiments:
human GSK3α = target: T1, human GSK3α (Homo sapiens, UniProt P49840); assay: In vitro enzymatic activity assay, GSK3α; format: biochemical; conditions: 1.0 mM ATP, 1.0 μM peptide substrate, 120 min, 25° C, read-out: Enzyme GSK3α (IC50)
T1 construct: Full length human GSK3α or GSK3B expressed as N-terminal GST fusion proteins; GST (N); purchased Carna Biosciences (Japan); host or cells: baculovirus host

GSK3A = target: T2, GSK3A (Homo sapiens, UniProt P49840); assay: NanoBRET cellular target engagement assay, Nanoluc-GSK3A in HEK293 cells; format: cell-based; conditions: NanoBRET GSK3α IC50, HEK293 cells, tracer K-8, 2 hours, 37° C
T2 construct: expressed in transfected cells
T2 sequence (P49840 whole entry): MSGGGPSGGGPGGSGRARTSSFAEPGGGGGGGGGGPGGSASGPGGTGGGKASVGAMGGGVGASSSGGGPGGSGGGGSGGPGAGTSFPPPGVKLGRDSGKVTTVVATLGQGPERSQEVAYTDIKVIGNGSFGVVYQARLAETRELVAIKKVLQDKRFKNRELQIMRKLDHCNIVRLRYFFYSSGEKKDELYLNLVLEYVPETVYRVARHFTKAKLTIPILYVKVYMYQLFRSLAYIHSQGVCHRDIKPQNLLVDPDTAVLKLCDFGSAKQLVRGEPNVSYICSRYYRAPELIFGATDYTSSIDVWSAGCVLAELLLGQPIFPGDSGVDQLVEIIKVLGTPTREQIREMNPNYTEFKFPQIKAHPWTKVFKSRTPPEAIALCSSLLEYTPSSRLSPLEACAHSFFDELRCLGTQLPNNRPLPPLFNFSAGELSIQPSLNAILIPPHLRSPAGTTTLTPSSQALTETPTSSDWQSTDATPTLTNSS

GSK3B [1] = target: T3, GSK3B (Homo sapiens, UniProt P49841); assay: NanoBRET cellular target engagement assay, Nanoluc-GSK3B in HEK293 cells; format: cell-based; set-up: expressed in transfected cells; conditions: NanoBRET GSK3β IC50, HEK293 cells, tracer K-8, 2 hours, 37° C
T3 sequence (P49841 whole entry, the tested form may be a part): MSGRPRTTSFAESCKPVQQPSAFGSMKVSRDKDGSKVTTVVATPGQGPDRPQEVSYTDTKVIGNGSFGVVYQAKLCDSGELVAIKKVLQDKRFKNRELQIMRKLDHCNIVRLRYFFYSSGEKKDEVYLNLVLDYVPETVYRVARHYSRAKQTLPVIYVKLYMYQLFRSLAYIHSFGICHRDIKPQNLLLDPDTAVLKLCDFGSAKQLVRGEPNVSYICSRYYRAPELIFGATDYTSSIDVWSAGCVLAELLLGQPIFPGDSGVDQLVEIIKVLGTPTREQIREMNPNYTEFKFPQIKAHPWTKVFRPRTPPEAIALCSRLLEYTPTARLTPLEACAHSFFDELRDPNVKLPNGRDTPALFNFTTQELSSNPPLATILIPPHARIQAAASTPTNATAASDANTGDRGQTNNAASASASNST

GSK3B [2] = target: T3, GSK3B; assay: In vitro enzymatic activity assay, GSK3β; format: biochemical; set-up: Full length human GSK3α or GSK3B expressed as N-terminal GST fusion proteins; GST (N); purchased Carna Biosciences (Japan); host or cells: baculovirus host; conditions: 1.0 mM ATP, 1.0 μM peptide substrate, 120 min, 25° C, read-out: Enzyme GSK3β (IC50)

T1 sequence (P49840 whole entry, the tested form may be a part): as the sequence (P49840 whole entry) above

| Compound | IC50 (human GSK3α) [nM] | IC50 (GSK3A) [nM] | IC50 (GSK3B [1]) [nM] | IC50 (GSK3B [2]) [nM] |
| --- | --- | --- | --- | --- |
| Cc1cc(C)c(-n2cnc(N)c(C(=O)Nc3cncc(C4CCCCCN4)c3)c2=O)c(C)c1 (single isomer, unassigned) [Example 146, (R)-4-amino-N-(5-(azepan-2-yl)pyridin-3-yl)-1-mesityl-6-oxo-1,6-dihydropyrimidine-5-carboxamide or (S)-4-amino-N-(5-(azepan-2-yl)pyridin-3-yl)-1-mesityl-6-oxo-1,6-dihydropyrimidine-5-carboxamide] | 7.7 | 3.7 | 340 | 355 |
| Cc1cc(F)cc(C)c1-n1cnc(N)c(C(=O)Nc2cncc([C@H]3CCCCN3)c2)c1=O [Example 161, (R)-4-amino-1-(4-fluoro-2,6-dimethylphenyl)-6-oxo-N-(5-(piperidin-2-yl)pyridin-3-yl)-1,6-dihydropyrimidine-5-carboxamide trifluoroacetate] | 7.2 | 3 | 287 | 379 |
| CCNCc1cncc(NC(=O)c2c(N)ncn(-c3c(Cl)cc(OC)cc3Cl)c2=O)c1 [Example 17, 4-amino-1-(2,6-dichloro-4-methoxyphenyl)-N-(5-((ethylamino)methyl)pyridin-3-yl)-6-oxo-1,6-dihydropyrimidine-5-carboxamide] | 7.8 | 3.8 | 271 | 340 |
| Nc1ncn(-c2c(Cl)cccc2Cl)c(=O)c1C(=O)Nc1cccc(C2CCCN2)c1F (single isomer, unassigned) [Example 168, (S)-4-amino-1-(2,6-dichlorophenyl)-N-(2-fluoro-3-(pyrrolidin-2-yl)phenyl)-6-oxo-1,6-dihydropyrimidine-5-carboxamide or (R)-4-amino-1-(2,6-dichlorophenyl)-N-(2-fluoro-3-(pyrrolidin-2-yl)phenyl)-6-oxo-1,6-dihydropyrimidine-5-carboxamide] | 49.3 | 27.1 | 1470 | 1530 |
| COc1cc(Cl)c(-n2cnc(N)c(C(=O)Nc3cncc([C@@H](N)C(F)F)c3)c2=O)c(Cl)c1 (single isomer, unassigned) [Example 204, (R)-4-amino-N-(5-(1-amino-2,2-difluoroethyl)pyridin-3-yl)-1-(2,6-dichloro-4-methoxyphenyl)-6-oxo-1,6-dihydropyrimidine-5-carboxamide or (S)-4-amino-N-(5-(1-amino-2,2-difluoroethyl)pyridin-3-yl)-1-(2,6-dichloro-4-methoxyphenyl)-6-oxo-1,6-dihydropyrimidine-5-carboxamide] | 13.5 | 8.8 | 782 | 706 |
| Cc1cc(C(F)CF)cc(C)c1-n1cnc(N)c(C(=O)Nc2cncc([C@H]3CCCCN3)c2)c1=O (single isomer, unassigned) [Example 113, 4-amino-1-(4-((R)-1,2-difluoroethyl)-2,6-dimethylphenyl)-6-oxo-N-(5-((R)-piperidin-2-yl)pyridin-3-yl)-1,6-dihydropyrimidine-5-carboxamide or 4-amino-1-(4-((S)-1,2-difluoroethyl)-2,6-dimethylphenyl)-6-oxo-N-(5-((R)-piperidin-2-yl)pyridin-3-yl)-1,6-dihydropyrimidine-5-carboxamide] | 3 | 1.7 | 107 | 133 |
| CNCc1cncc(NC(=O)c2c(N)ncn(-c3c(Cl)cc(C(F)CF)cc3Cl)c2=O)c1 (single isomer, unassigned) [Example 117, (R)-4-amino-1-(2,6-dichloro-4-(1,2-difluoroethyl)phenyl)-N-(5-((methylamino)methyl)pyridin-3-yl)-6-oxo-1,6-dihydropyrimidine-5-carboxamide or (S)-4-amino-1-(2,6-dichloro-4-(1,2-difluoroethyl)phenyl)-N-(5-((methylamino)methyl)pyridin-3-yl)-6-oxo-1,6-dihydropyrimidine-5-carboxamide] | 2.2 | 1.4 | 81.1 | 104 |
| NCc1cncc(NC(=O)c2c(N)ncn(-c3c(Cl)cc(OC4CC4)cc3Cl)c2=O)c1 [Example 52, 4-amino-N-(5-(aminomethyl)pyridin-3-yl)-1-(2,6-dichloro-4-cyclopropoxyphenyl)-6-oxo-1,6-dihydropyrimidine-5-carboxamide] | 4.4 | 2.5 | 132 | 209 |
| NCc1cncc(NC(=O)c2c(N)ncn(-c3c(Cl)cc(C(F)(F)F)cc3Cl)c2=O)c1 [Example 120, 4-amino-N-(5-(aminomethyl)pyridin-3-yl)-1-(2,6-dichloro-4-(trifluoromethyl)phenyl)-6-oxo-1,6-dihydropyrimidine-5-carboxamide] | 9.4 | 4.4 | 274 | 442 |
| Nc1ncn(-c2c(Cl)cccc2Cl)c(=O)c1C(=O)Nc1cncc([C@@H]2CCCN2)c1 [Example 40, (S)-4-amino-1-(2,6-dichlorophenyl)-6-oxo-N-(5-(pyrrolidin-2-yl)pyridin-3-yl)-1,6-dihydropyrimidine-5-carboxamide] | 10.1 | 5.8 | 431 | 418 |
| CCCOc1cc(C)c(-n2cnc(N)c(C(=O)Nc3cncc(CNC)c3)c2=O)c(C)c1 [Example 127, 4-amino-1-(2,6-dimethyl-4-propoxyphenyl)-N-(5-((methylamino)methyl)pyridin-3-yl)-6-oxo-1,6-dihydropyrimidine-5-carboxamide] | 18.6 | 9.6 | 650 | 767 |
| Nc1ncn(-c2c(Cl)cccc2Cl)c(=O)c1C(=O)Nc1cccc([C@@H]2CNC(=O)CN2)c1 (single isomer, unassigned) [Example 189, (R)-4-amino-1-(2,6-dichlorophenyl)-6-oxo-N-(3-(5-oxopiperazin-2-yl)phenyl)-1,6-dihydropyrimidine-5-carboxamide or (S)-4-amino-1-(2,6-dichlorophenyl)-6-oxo-N-(3-(5-oxopiperazin-2-yl)phenyl)-1,6-dihydropyrimidine-5-carboxamide] | 133 | 69.4 | 4580 | 2160 |
| CN(C)c1cc(Cl)c(-n2cnc(N)c(C(=O)Nc3cncc([C@@H]4CCCCN4)c3)c2=O)c(Cl)c1 [Example 123, (S)-4-amino-1-(2,6-dichloro-4-(dimethylamino)phenyl)-6-oxo-N-(5-(piperidin-2-yl)pyridin-3-yl)-1,6-dihydropyrimidine-5-carboxamide] | 4.8 | 3.3 | 203 | 266 |
| CCOc1cc(Cl)c(-n2cnc(N)c(C(=O)Nc3cncc(C(N)CC(F)F)c3)c2=O)c(Cl)c1 (single isomer, unassigned) [Example 143, (R)-4-amino-N-(5-(1-amino-3,3-difluoropropyl)pyridin-3-yl)-1-(2,6-dichloro-4-ethoxyphenyl)-6-oxo-1,6-dihydropyrimidine-5-carboxamide or (S)-4-amino-N-(5-(1-amino-3,3-difluoropropyl)pyridin-3-yl)-1-(2,6-dichloro-4-ethoxyphenyl)-6-oxo-1,6-dihydropyrimidine-5-carboxamide] | 4.9 | 4.1 | 280 | 207 |
| CCOc1cc(C)c(-n2cnc(N)c(C(=O)Nc3cncc(C(C)N)c3)c2=O)c(C)c1 (single isomer, unassigned) [Example 104, (R)-4-amino-N-(5-(1-aminoethyl)pyridin-3-yl)-1-(4-ethoxy-2,6-dimethylphenyl)-6-oxo-1,6-dihydropyrimidine-5-carboxamide or (S)-4-amino-N-(5-(1-aminoethyl)pyridin-3-yl)-1-(4-ethoxy-2,6-dimethylphenyl)-6-oxo-1,6-dihydropyrimidine-5-carboxamide] | 16.2 | 7.9 | 521 | 746 |
| CCOc1cc(C)c(-n2cnc(N)c(C(=O)Nc3cncc([C@H]4CCCCN4)c3)c2=O)c(C)c1 [Example 91, (R)-4-amino-1-(4-ethoxy-2,6-dimethylphenyl)-6-oxo-N-(5-(piperidin-2-yl)pyridin-3-yl)-1,6-dihydropyrimidine-5-carboxamide] | 6 | 3.7 | 201 | 299 |
| CCC[C@@H](N)c1cncc(NC(=O)c2c(N)ncn(-c3c(C)cc(OCC)cc3C)c2=O)c1 [Example 94, (R)-4-amino-N-(5-(1-aminobutyl)pyridin-3-yl)-1-(4-ethoxy-2,6-dimethylphenyl)-6-oxo-1,6-dihydropyrimidine-5-carboxamide] | 7.6 | 6.6 | 384 | 598 |
| Cc1cc(Cl)c(-n2cnc(N)c(C(=O)Nc3cncc([C@@H]4CCCN4)c3)c2=O)c(Cl)c1 [Example 45, (S)-4-amino-1-(2,6-dichloro-4-methylphenyl)-6-oxo-N-(5-(pyrrolidin-2-yl)pyridin-3-yl)-1,6-dihydropyrimidine-5-carboxamide] | 8.5 | 6.6 | 365 | 384 |

From patent US20260327191A1, “GSK3a INHIBITORS AND METHODS OF USE THEREOF” (Blueprint Medicines Corporation, priority 2023, published 2026)
